Test [1] has as its target T1, baculovirus-expressed ALK (Homo sapiens, UniProt Q9UM73).
T1 construct: host or cells: baculovirus expression system
Briefly: ALK Kinase Assay (ELISA-type, time-resolved fluorescence). Type of test: biochemical. Put shortly: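 Wells were coated with phospholipase C-γ at 10 μg/mL in Tris-buffered saline. Adding 30 ng/ml enzyme started the reaction, which ran at 37° C for 15 minutes before Eu-N1 PT66 antibody detection. Percent inhibition versus log10 concentration gave IC50 by variable-slope fit.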

The target of test [2] is T2, c-Met (cytoplasmic domain) (Homo sapiens, UniProt P08581).
T2 construct: 10 ng/mL c-Met (cytoplasmic domain, Invitrogen Corporation #PV3143); purchased Invitrogen Corporation PV3143
T2 sequence (P08581 956-1390 limits assumed): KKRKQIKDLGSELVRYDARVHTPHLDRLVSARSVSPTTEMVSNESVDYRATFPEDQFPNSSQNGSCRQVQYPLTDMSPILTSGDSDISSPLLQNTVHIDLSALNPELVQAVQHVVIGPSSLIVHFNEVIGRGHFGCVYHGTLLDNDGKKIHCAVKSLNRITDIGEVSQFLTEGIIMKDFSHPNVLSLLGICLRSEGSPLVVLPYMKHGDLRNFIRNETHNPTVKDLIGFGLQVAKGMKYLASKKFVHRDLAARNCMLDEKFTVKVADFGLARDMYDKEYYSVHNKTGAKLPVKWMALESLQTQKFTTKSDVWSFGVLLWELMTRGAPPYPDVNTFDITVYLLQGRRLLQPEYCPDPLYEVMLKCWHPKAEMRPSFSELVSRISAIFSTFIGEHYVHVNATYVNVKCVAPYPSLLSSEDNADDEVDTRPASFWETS
Put plainly: c-Met Kinase Assay (same methods as for ALK, with modifications). In kind it is biochemical. The method in brief: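 Steps: coat wells with PLC-γ (10 μg/mL, Tris-buffered saline); add 10 ng/mL c-Met cytoplasmic domain to initiate; incubate 15 min, 37° C; detect phosphoproduct via Eu-N1 PT66 antibody.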

The mark [3] stands for this setting: ALK kinase inhibition, 1 μM ATP (Km level), read-out: ALK Activity.
Where [4] appears, read: c-Met kinase inhibition, 1 μM ATP (Km level), read-out: cMet Activity.
[5] abbreviates: ALK kinase inhibition, 1 μM ATP, read-out: ALK Activity.
Setting [6] is: c-Met kinase inhibition, 1 μM ATP, read-out: cMet Activity.
The mark [7] stands for this setting: 1 μM ATP (Km level), read-out: ALK Activity (ALK Kinase Inhibition, IC50).
The mark [8] stands for this setting: 1 μM ATP (Km level), read-out: cMet Activity (c-Met Kinase Inhibition, IC50).
[9] abbreviates: 1 μM ATP (Km level), 30 ng/ml ALK, 37° C., 15 minutes, read-out: ALK Activity (ALK kinase inhibition, IC50 class).
Where [10] appears, read: 1 μM ATP (Km level), 10 ng/mL c-Met, read-out: cMet Activity (c-Met kinase inhibition, IC50 class).

Molecules are shown by their SMILES. Where a name gives a salt, the structure may show the parent alone. Read-outs that look alike come from different tables or passages of the source.

T1 sequence (Q9UM73 19-1620): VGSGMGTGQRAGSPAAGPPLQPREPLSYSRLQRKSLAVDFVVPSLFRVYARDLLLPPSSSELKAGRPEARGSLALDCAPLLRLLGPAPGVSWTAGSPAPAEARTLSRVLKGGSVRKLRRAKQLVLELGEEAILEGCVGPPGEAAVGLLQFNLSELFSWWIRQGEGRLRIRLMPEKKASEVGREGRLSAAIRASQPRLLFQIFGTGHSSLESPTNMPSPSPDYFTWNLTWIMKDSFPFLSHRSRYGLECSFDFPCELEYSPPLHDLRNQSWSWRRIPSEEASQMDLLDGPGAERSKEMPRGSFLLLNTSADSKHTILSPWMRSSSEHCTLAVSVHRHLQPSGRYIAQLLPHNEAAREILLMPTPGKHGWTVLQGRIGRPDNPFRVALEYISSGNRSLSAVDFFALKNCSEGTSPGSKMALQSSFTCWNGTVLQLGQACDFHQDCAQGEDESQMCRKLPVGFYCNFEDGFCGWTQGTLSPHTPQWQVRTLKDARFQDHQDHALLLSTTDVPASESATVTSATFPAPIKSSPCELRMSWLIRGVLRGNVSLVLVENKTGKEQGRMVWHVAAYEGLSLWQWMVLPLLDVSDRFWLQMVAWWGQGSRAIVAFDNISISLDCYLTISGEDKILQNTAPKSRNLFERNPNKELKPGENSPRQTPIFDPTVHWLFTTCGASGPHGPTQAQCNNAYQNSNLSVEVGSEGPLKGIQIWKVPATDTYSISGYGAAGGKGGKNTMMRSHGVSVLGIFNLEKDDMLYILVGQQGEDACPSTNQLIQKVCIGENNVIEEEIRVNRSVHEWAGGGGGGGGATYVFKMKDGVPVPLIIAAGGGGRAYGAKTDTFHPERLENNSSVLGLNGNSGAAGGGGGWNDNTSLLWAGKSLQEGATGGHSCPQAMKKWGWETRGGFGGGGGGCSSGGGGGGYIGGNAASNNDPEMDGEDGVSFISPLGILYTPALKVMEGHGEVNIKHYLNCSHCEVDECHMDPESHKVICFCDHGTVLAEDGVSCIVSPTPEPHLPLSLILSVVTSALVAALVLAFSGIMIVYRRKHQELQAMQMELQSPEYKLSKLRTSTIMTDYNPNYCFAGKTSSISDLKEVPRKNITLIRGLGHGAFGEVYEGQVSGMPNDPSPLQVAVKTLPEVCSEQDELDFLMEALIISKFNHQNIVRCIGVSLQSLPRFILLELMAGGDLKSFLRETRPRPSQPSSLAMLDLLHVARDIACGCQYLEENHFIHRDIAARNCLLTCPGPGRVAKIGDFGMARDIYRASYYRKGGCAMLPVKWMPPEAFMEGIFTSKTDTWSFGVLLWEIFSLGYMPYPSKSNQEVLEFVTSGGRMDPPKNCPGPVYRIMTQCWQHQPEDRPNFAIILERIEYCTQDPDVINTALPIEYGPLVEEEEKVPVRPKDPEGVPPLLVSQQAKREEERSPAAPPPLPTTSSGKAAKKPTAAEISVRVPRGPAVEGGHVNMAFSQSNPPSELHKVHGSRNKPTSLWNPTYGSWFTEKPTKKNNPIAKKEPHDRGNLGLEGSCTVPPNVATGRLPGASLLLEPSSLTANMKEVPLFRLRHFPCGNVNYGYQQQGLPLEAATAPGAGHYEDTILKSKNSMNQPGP

As to `COCCN1CCc2cc(Nc3ncc(Cl)c(Nc4cc(Cl)ccc4OC)n3)c(OC)cc2CC1` [Example 243, 5-Chloro-N*4*-(5-chloro-2-methoxy-phenyl)-N*2*-[8-methoxy-3-(2-methoxy-ethyl)-2,3,4,5-tetrahydro-1H-benzo[d]azepin-7-yl]-pyrimidine-2,4-diamine], the values for the IC50 in test [1] (setting [3]) and in test [2] (setting [4]) were less than 0.1 µM and greater than 10 µM, respectively.
Consider `COc1cc2c(cc1Nc1ncc(Cl)c(Nc3ccccc3S(=O)(=O)N(C)C)n1)CCN(CC(C)(C)O)CC2` [Example 1563, 2-{5-Chloro-2-[3-(2-hydroxy-2-methyl-propyl)-8-methoxy-2,3,4,5-tetrahydro-1H-3-benzazepin-7-ylamino]-pyrimidin-4-ylamino}-N,N-dimethyl-benzenesulfonamide], for which the IC50 in test [1] (setting [5]) is less than 0.1 µM; in test [2] (setting [6]), 1 to 10 µM.
The corresponding values for `CC1(C)CCCN(C(=O)CN2CCCC2)c2cc(Nc3ncc(Cl)c(N[C@H]4[C@@H](C(N)=O)[C@@H]5C=C[C@H]4C5)n3)ccc21` [Example 1607, (1S,2S,3R,4R)-3-{5-Chloro-2-[5,5-dimethyl-1-(2-pyrrolidin-1-yl-acetyl)-2,3,4,5-tetrahydro-1H-benzo[b]azepin-8-ylamino]-pyrimidin-4-ylamino}-bicyclo[2.2.1]hept-5-ene-2-carboxylic acid amide] are less than 0.1 µM and 0.1 to 1 µM.
For `CCCNC(=O)c1ccc(Nc2nc(Nc3ccc4c(c3)CCC(N3CCOCC3)CC4)ncc2Cl)c(OC)c1` (stereo not shown) [Example 929, 4-[5-Chloro-2-(7-morpholin-4-yl-6,7,8,9-tetrahydro-5H-benzocyclohepten-2-ylamino)-pyrimidin-4-ylamino]-3-methoxy-N-propyl-benzamide], the IC50 in test [1] (setting [7]) was less than 0.1 µM; in test [2] (setting [8]), greater than 10 µM.
For the molecule `CCN1CCc2c(Nc3ncc(Cl)c(N[C@@H]4CCCC[C@H]4NS(C)(=O)=O)n3)ccc(OC)c2CC1` [Example 155, N-{(1R,2R)-2-[5-Chloro-2-(3-ethyl-9-methoxy-2,3,4,5-tetrahydro-1H-benzo[d]azepin-6-ylamino)-pyrimidin-4-ylamino]-cyclohexyl}-methanesulfonamide], the IC50 in test [1] (setting [3]) is less than 0.1 µM; in test [2] (setting [4]), greater than 10 µM.
The corresponding values for `NC(=O)[C@@H]1[C@H](Nc2nc(Nc3ccc4c(c3)CCC(=O)CC4)ncc2Cl)[C@H]2C=C[C@@H]1C2` (relative stereo) [Example 173, (2-exo,3-exo)-3-[5-Chloro-2-(7-oxo-6,7,8,9-tetrahydro-5H-benzocyclo-hepten-2-ylamino)-pyrimidin-4-ylamino]-bicyclo[2.2.1]hept-5-ene-2-carboxylic acid amide; hydrochloride] are less than 0.1 µM and 0.1 to 1 µM.
On to `C#CCNC(=O)c1cccc(F)c1Nc1nc(Nc2ccc3c(c2)N(CC)C(=O)C(NC(=O)COC)CC3)ncc1Cl` (stereo not shown) [Example 1499, 2-{5-Chloro-2-[1-ethyl-3-(2-methoxy-acetylamino)-2-oxo-2,3,4,5-tetrahydro-1H-benzo[b]azepin-8-ylamino]-pyrimidin-4-ylamino}-3-fluoro-N-prop-2-ynyl-benzamide], for which the IC50 in test [1] (setting [5]) was 0.1 to 1 µM; in test [2] (setting [6]) it was less than 0.1 µM.
With `COCCN1CCc2ccc(Nc3ncc(Cl)c(Nc4ccccc4C(=O)NCCN4CCN(C)CC4)n3)cc2CC1` [Example 1402, 2-{5-Chloro-2-[3-(2-methoxy-ethyl)-2,3,4,5-tetrahydro-1H-benzo[d]azepin-7-ylamino]-pyrimidin-4-ylamino}-N-[2-(4-methyl-piperazin-1-yl)-ethyl]-benzamide], the values for the IC50 in test [1] (setting [9]) and in test [2] (setting [10]) were 0.1 to 1 µM and 1 to 10 µM, respectively.
As to `CNC(=O)c1ccccc1Nc1nc(Nc2ccc3c(c2)NC(=O)CCC3)ncc1Cl` [Example 513, 2-[5-Chloro-2-(2-oxo-2,3,4,5-tetrahydro-1H-benzo[b]azepin-8-ylamino)-pyrimidin-4-ylamino]-N-methyl benzamide], the IC50 in test [1] (setting [7]) and in test [2] (setting [8]) was less than 0.1 µM each time.
In the case of `CCNC(=O)c1cccc(F)c1Nc1nc(Nc2cc3c(cc2OC)CCN(CC(C)(F)F)CC3)ncc1Cl` [Example 789, 2-{5-Chloro-2-[3-(2,2-difluoro-propyl)-8-methoxy-2,3,4,5-tetrahydro-1H-benzo[d]azepin-7-ylamino]-pyrimidin-4-ylamino}-N-ethyl-3-fluoro-benzamide], the IC50 in test [1] (setting [7]) was less than 0.1 µM; in test [2] (setting [8]), 1 to 10 µM.
Turning to `COCCNC1CCc2ccc(Nc3ncc(Cl)c(Nc4ccccc4S(=O)(=O)N4CCC(O)C4)n3)c(OC)c2CC1` (stereo not shown) [Example 695, 1-(2-{5-Chloro-2-[1-methoxy-7-(2-methoxy-ethylamino)-6,7,8,9-tetrahydro-5H-benzocyclohepten-2-ylamino]-pyrimidin-4-ylamino}-benzenesulfonyl)-pyrrolidin-3-ol], the IC50 in test [1] (setting [7]) was less than 0.1 µM; in test [2] (setting [8]) it was 1 to 10 µM.
The corresponding values for `COc1c(Nc2ncc(Cl)c(N[C@H]3[C@@H](C(N)=O)[C@@H]4C=C[C@H]3C4)n2)ccc2c1CCC(N1CCCC(O)C1)CC2` (stereo partly drawn) [Example 909, (1S,2S,3R,4R)-3-{5-Chloro-2-[7-(3-hydroxy-piperidin-1-yl)-1-methoxy-6,7,8,9-tetrahydro-5H-benzocyclohepten-2-ylamino]-pyrimidin-4-ylamino}-bicyclo[2.2.1]hept-5-ene-2-carboxylic acid amide] are less than 0.1 µM and 1 to 10 µM.
The corresponding values for `COc1cc2c(cc1Nc1ncc(Cl)c(Nc3ccc(Cl)cc3S(=O)(=O)N(C)C)n1)CCN(CC(=O)N1CCOCC1)CC2` [Example 841, 5-Chloro-2-{5-chloro-2-[8-methoxy-3-(2-morpholin-4-yl-2-oxo-ethyl)-2,3,4,5-tetrahydro-1H-benzo[d]azepin-7-ylamino]-pyrimidin-4-ylamino}-N,N-dimethyl-benzenesulfonamide] are less than 0.1 µM and greater than 10 µM.
On to `C=CCOc1cc(N(C)C)cc(F)c1Nc1nc(Nc2ccc3c(c2)CCN(CCOC)CC3)ncc1Cl` [Example 1710, N*4*-(2-Allyloxy-4-dimethylamino-6-fluoro-phenyl)-5-chloro-N*2*-[3-(2-methoxy-ethyl)-2,3,4,5-tetrahydro-1H-benzo[d]azepin-7-yl]-pyrimidine-2,4-diamine], for which the IC50 is less than 0.1 µM in test [1] (setting [5]) and 0.1 to 1 µM in test [2] (setting [6]).
With `COCCNC1CCCc2c(ccc(Nc3ncc(Cl)c(Nc4ccccc4S(=O)(=O)N(C)C)n3)c2OC)C1` (stereo not shown) [Example 957, 2-{5-Chloro-2-[1-methoxy-6-(2-methoxy-ethylamino)-6,7,8,9-tetrahydro-5H-benzocyclohepten-2-ylamino]-pyrimidin-4-ylamino}-N,N-dimethyl-benzenesulfonamide], the IC50 in test [1] (setting [7]) is less than 0.1 µM; in test [2] (setting [8]) it was greater than 10 µM.
The like results for `COc1c(Nc2ncc(Cl)c(Nc3ccccc3S(=O)(=O)C(C)C)n2)ccc2c1CCC(N1CCN(C)CC1)CC2` (racemic) [Example 914, 5-Chloro-N*2*-[1-methoxy-7-(4-methyl-piperazin-1-yl)-6,7,8,9-tetrahydro-5H-benzocyclohepten-2-yl]-N*4*-[2-(propane-2-sulfonyl)-phenyl]-pyrimidine-2,4-diamine] were, in that order, less than 0.1 µM and 1 to 10 µM.
Turning to `COCCN1CCc2ccc(Nc3ncc(Cl)c(Nc4ccccc4C(=O)NCCCN(C)C)n3)cc2CC1` [Example 1401, 2-{5-Chloro-2-[3-(2-methoxy-ethyl)-2,3,4,5-tetrahydro-1H-benzo[d]azepin-7-ylamino]-pyrimidin-4-ylamino}-N-(3-dimethylamino-propyl)-benzamide], the IC50 in test [1] (setting [9]) and in test [2] (setting [10]) was 0.1 to 1 µM throughout.
